The values that follow come from patent publication US20240058460A1, “METHODS AND COMPOUNDS FOR MODULATING HUNTINGTON'S DISEASE” (Design Therapeutics, Inc., priority 2022, published 2024).

The subject of assay [1] is human HTT C allele (SNP rs362331C/T) mRNA in GM09197 fibroblasts. Kind of assay: HTT mRNA, allele-specific RT-PCR in GM09197 fibroblasts, C allele. The class given is cell-based. The conditions noted are these: for GM 09197 E min 48 Hr C Allele (%): lowest % HTT observed at 0.5 nM to 1000 nM compound; for IC50: Homo sapiens, Fibroblast, 48 hr, C allele HTT mRNA normalized to GAPDH, relative to vehicle. How it is done: (§1) Molecular Biology Toolkit: • qPCR primer probe sets: • RNA input normalization was assessed utilizing human glyceraldehyde 3-phosphate dehydrogenase (hGAPDH) TaqMan assay (ThermoFisher cat #4351370) or Human Cyclophillin ([…]) TaqMan assay (ThermoFisher cat #4351372) • Total HTT detection was assessed utilizing human Htt TaqMan assay (ThermoFisher cat #4331182) • Allele-specific detection of human HTT expression in HD cells containing the SNP rs362331C/T (Exon 50): for each assay, allele-specific probes to detect the SNP variant contained locked nucleic acid bases to improve allele discrimination, as compared to unmodified DNA probes. • 362331-F (331 forward primer) • 362331-R (331 reverse primer) • 362331-C probe: TCC CTC ATC+C+AC TGT GT • 362331-T probe: CTC+A+T+C+T+A+C TGT GT • qPCR was performed using Agpath ID one-step reverse transcriptase polymerase chain reaction (RT-PCR) reagent
(§2) Screening of HD molecules methods: GM09197 and/or GM04022 fibroblasts were cultured in T175 flasks incubated at 37° C. and 5% CO2. Once confluency was reached, the media was removed, the cells were washed with 1×PBS, and cells were dissociated using TrypLE™ Express Enzyme. Media was added to the enzyme and collected into a 15-mL conical tube and centrifuged at 500×g for 5 minutes to pellet the cells. Media and enzyme were aspirated using a serological pipette. Cells were resuspended in fresh media and counted using a Countess 3 Automated Cell Counter. Cells were plated at a density of 15,000 cells/well in a tissue culture-treated polystyrene 96-well dish and incubated at 37° C. and 5% CO2 overnight. The next day, media was removed using an 8-channel aspirator. 200 μL media/well are added back into the plate. The molecules are formulated to 1 mM and are dispensed using a Multidrop™ Pico 8 Digital Dispenser. After a 48-hour incubation with compounds, media was removed from plates, cells were washed with 1×PBS, and cells were lysed in 40 μL per well guanidinium thiocyanate buffer. RNA was isolated and purified in […] glass fiber column plates using chaotropic salts. Human mtHTT, wtHTT, and GAPDH mRNA were measured via RT-PCR using the ThermoFisher QuantStudio™ 7 Flex System in 384-well format. Results of HTT levels were normalized to GAPDH mRNA levels. Normalized HTT mRNA levels were expressed relative to vehicle-treated samples to assess fold change after molecule treatment.
(§3) Emin for each compound is the lowest % HTT concentration observed within a compound concentration of 0.5 nM to 1000 nM.

Assay [2] deals with human HTT T allele (SNP rs362331C/T) mRNA in GM09197 fibroblasts. Kind of assay: HTT mRNA, allele-specific RT-PCR in GM09197 fibroblasts, T allele. Format: cell-based. The note with it: for IC50: Homo sapiens, Fibroblast, 48 hr, T allele HTT mRNA normalized to GAPDH, relative to vehicle; for Gm09197 Emin 48 hr T Allele (%): lowest % HTT observed at 0.5 nM to 1000 nM compound. On the procedure: as §1, §2, §3

Turning to `CCS(=O)(=O)Nc1ccc(Oc2ccc(F)cc2F)c(-c2cn(C)c(=O)c3[nH]c(C(=O)Nc4ccc(OCCOCCOCCOCCOCCOCCOCCOCCOCCNC(=O)c5cc(NC(=O)c6nc(NC(=O)[C@H](N)CCNC(=O)c7cc(NC(=O)c8nc(NC(=O)CCNC(=O)c9cc(NC(=O)c%10nccn%10C)cn9C)cn8C)cn7C)cn6C)cn5C)cc4)cc23)c1` [Compound A-21], in assay [1], the “GM 09197 E min 48 Hr C Allele (%)” value is recorded as “A (A>90%)” and the IC50 was over 1 µM. In assay [2], the IC50 is over 1 µM and the “Gm09197 Emin 48 hr T Allele (%)” value was “A (A>90%)”.

`CC(=O)Nc1c(F)cc(C(=O)NC2CCC(O)CC2)cc1O[C@@H](C)c1cccc(OCCOCCOCCOCCOCCOCCOCCOCCOCCOCCOCCOCCOCCOCCOCCOCCNC(=O)CCNC(=O)c2nc(NC(=O)c3cc(NC(=O)CCNC(=O)c4nc(NC(=O)CCCNC(=O)c5cc(NC(=O)c6nc(NC(=O)CCNC(=O)c7cc(NC(=O)c8nccn8C)cn7C)cn6C)cn5C)cn4C)cn3C)cn2C)c1` (some centres unmarked) [Compound A-31]: the IC50 in assay [1] and in assay [2] was over 1 µM in each case.

Turning to `CC(=O)Nc1c(F)cc(C(=O)N[C@H]2CC[C@H](O)CC2)cc1O[C@@H](C)c1cccc(C(=O)NCCOCCOCCOCCOCCOCCOCCOCCOCCOCCOCCOCCOCCOCCOCCOCCNC(=O)CCNC(=O)c2nc(NC(=O)c3cc(NC(=O)CCNC(=O)c4nc(NC(=O)CCCNC(=O)c5cc(NC(=O)c6nc(NC(=O)CCNC(=O)c7cc(NC(=O)c8nccn8C)cn7C)cn6C)cn5C)cn4C)cn3C)cn2C)c1` [Compound A-32], the IC50 in assay [1] and in assay [2] was over 1 µM each time.

Take `Cc1sc2c(c1C)C(c1ccc(Cl)cc1)=N[C@@H](CC(=O)Nc1ccc(OCCOCCOCCOCCOCCOCCOCCOCCOCCNC(=O)c3cc(NC(=O)c4nc(NC(=O)[C@H](N)CCNC(=O)c5cc(NC(=O)c6nc(NC(=O)CCNC(=O)c7cc(NC(=O)c8nccn8C)cn7C)cn6C)cn5C)cn4C)cn3C)cc1)c1nnc(C)n1-2` [Compound A-35]: in assay [1], the “GM 09197 E min 48 Hr C Allele (%)” value was “A (A>90%)” and the IC50 was over 1 µM. This compound also returned an IC50 in assay [2] of over 1 µM.

`CCS(=O)(=O)Nc1ccc(Oc2ccc(F)cc2F)c(-c2cn(C)c(=O)c3[nH]c(C(=O)Nc4ccc(OCCOCCOCCOCCOCCOCCOCCOCCOCCOCCOCCOCCOCCOCCOCCOCCNC(=O)c5cc(NC(=O)c6nc(NC(=O)[C@H](N)CCNC(=O)c7cc(NC(=O)c8nc(NC(=O)CCNC(=O)c9cc(NC(=O)c%10nccn%10C)cn9C)cn8C)cn7C)cn6C)cn5C)cc4)cc23)c1` [Compound A-36]: in assay [1], the “GM 09197 E min 48 Hr C Allele (%)” value is “A (A>90%)” and the IC50 was over 1 µM. Also, in assay [2], the IC50 is over 1 µM and the “Gm09197 Emin 48 hr T Allele (%)” value was “A (A>90%)”.

As to `Cc1sc2c(c1C)C(c1ccc(Cl)cc1)=N[C@@H](CC(=O)Nc1ccc(OCCOCCOCCOCCOCCOCCOCCOCCOCCOCCOCCOCCOCCOCCOCCOCCNC(=O)c3cc(NC(=O)c4nc(NC(=O)c5cc(NC(=O)[C@@H](N)CCNC(=O)c6nc(NC(=O)CCNC(=O)c7cc(NC(=O)c8nccn8C)cn7C)cn6C)cn5C)cn4C)cn3C)cc1)c1nnc(C)n1-2` [Compound A-38], in assay [1], the “GM 09197 E min 48 Hr C Allele (%)” value was “A (A>90%)” and the IC50 is over 1 µM. Also, in assay [2], the IC50 is over 1 µM and the “Gm09197 Emin 48 hr T Allele (%)” value was “A (A>90%)”.

Take `CCS(=O)(=O)Nc1ccc(Oc2ccc(F)cc2F)c(-c2cn(C)c(=O)c3[nH]c(C(=O)Nc4ccc(OCCOCCOCCOCCOCCOCCOCCOCCOCCNC(=O)c5cc(NC(=O)c6nc(NC(=O)c7cc(NC(=O)[C@@H](N)CCNC(=O)c8nc(NC(=O)CCNC(=O)c9cc(NC(=O)c%10nccn%10C)cn9C)cn8C)cn7C)cn6C)cn5C)cc4)cc23)c1` [Compound A-39]: the IC50 in assay [1] and in assay [2] was over 1 µM in each case.

Consider `CCS(=O)(=O)Nc1ccc(Oc2ccc(F)cc2F)c(-c2cn(C)c(=O)c3[nH]c(C(=O)Nc4ccc(OCCOCCOCCOCCOCCOCCOCCOCCOCCOCCOCCOCCOCCOCCOCCOCCNC(=O)c5cc(NC(=O)c6nc(NC(=O)c7cc(NC(=O)[C@@H](N)CCNC(=O)c8nc(NC(=O)CCNC(=O)c9cc(NC(=O)c%10nccn%10C)cn9C)cn8C)cn7C)cn6C)cn5C)cc4)cc23)c1` [Compound A-40], for which, in assay [1], the “GM 09197 E min 48 Hr C Allele (%)” value is “A (A>90%)” and the IC50 is over 1 µM. In addition, in assay [2], the IC50 was over 1 µM and the “Gm09197 Emin 48 hr T Allele (%)” value is listed as “A (A>90%)”.

For `Cc1sc2c(c1C)C(c1ccc(Cl)cc1)=N[C@H](CC(=O)Nc1ccc(OCCOCCOCCOCCOCCOCCOCCOCCOCCOCCOCCOCCOCCOCCOCCOCCNC(=O)CCNC(=O)c3nc(NC(=O)c4cc(NC(=O)CCNC(=O)c5nc(NC(=O)CCCNC(=O)c6cc(NC(=O)c7nc(NC(=O)CCNC(=O)c8cc(NC(=O)c9nccn9C)cn8C)cn7C)cn6C)cn5C)cn4C)cn3C)cc1)c1nnc(C)n1-2` [Compound A-45], in assay [1], the “GM 09197 E min 48 Hr C Allele (%)” value was “C (C<80%)” and the IC50 was over 1 µM. In assay [2], the IC50 is over 1 µM and the “Gm09197 Emin 48 hr T Allele (%)” value was “C (C<80%)”.

With `Cn1cc(NC(=O)c2nc(NC(=O)CCNC(=O)c3cc(NC(=O)c4nccn4C)cn3C)cn2C)cc1C(=O)NCCCC(=O)Nc1cn(C)c(C(=O)NCCC(=O)Nc2cc(C(=O)Nc3cn(C)c(C(=O)NCCC(=O)NCCOCCOCCOCCOCCOCCOCCOCCOCCN4C[C@H](Nc5cnn(C)c(=O)c5Br)C[C@H](c5ccccc5)C4)n3)n(C)c2)n1` [Compound A-48], in assay [1], the “GM 09197 E min 48 Hr C Allele (%)” value was “A (A>90%)” and the IC50 was over 1 µM. For the same compound, in assay [2], the IC50 is over 1 µM and the “Gm09197 Emin 48 hr T Allele (%)” value was “A (A>90%)”.

As for `Cn1cc(NC(=O)c2nc(NC(=O)CCNC(=O)c3cc(NC(=O)c4nccn4C)cn3C)cn2C)cc1C(=O)NCCCC(=O)Nc1cn(C)c(C(=O)NCCC(=O)Nc2cc(C(=O)Nc3cn(C)c(C(=O)NCCC(=O)NCCOCCOCCOCCOCCOCCOCCOCCOCCOCCOCCOCCOCCOCCOCCOCCN4C[C@H](Nc5cnn(C)c(=O)c5Br)C[C@H](c5ccccc5)C4)n3)n(C)c2)n1` [Compound A-49], in assay [1], the “GM 09197 E min 48 Hr C Allele (%)” value is reported as “A (A>90%)” and the IC50 is over 1 µM. Besides, in assay [2], the IC50 was over 1 µM and the “Gm09197 Emin 48 hr T Allele (%)” value is on record as “A (A>90%)”.

Consider `Cc1noc(C)c1-c1ccc2c(c1)nc(CCc1ccc(OCCOCCOCCOCCOCCOCCOCCOCCOCCNC(=O)CCNC(=O)c3nc(NC(=O)c4cc(NC(=O)CCNC(=O)c5nc(NC(=O)CCCNC(=O)c6cc(NC(=O)c7nc(NC(=O)CCNC(=O)c8cc(NC(=O)c9nccn9C)cn8C)cn7C)cn6C)cn5C)cn4C)cn3C)c(Cl)c1)n2C[C@H](C)N1CCOCC1` [Compound A-53], for which, in assay [1], the “GM 09197 E min 48 Hr C Allele (%)” value is “A (A>90%)” and the IC50 is over 1 µM. Further, in assay [2], the IC50 is over 1 µM.

As for `Cc1noc(C)c1-c1ccc2c(c1)nc(CCc1ccc(OCCOCCOCCOCCOCCOCCOCCOCCOCCOCCOCCOCCOCCOCCOCCOCCNC(=O)CCNC(=O)c3nc(NC(=O)c4cc(NC(=O)CCNC(=O)c5nc(NC(=O)CCCNC(=O)c6cc(NC(=O)c7nc(NC(=O)CCNC(=O)c8cc(NC(=O)c9nccn9C)cn8C)cn7C)cn6C)cn5C)cn4C)cn3C)c(Cl)c1)n2C[C@H](C)N1CCOCC1` [Compound A-54], the IC50 in assay [1] and in assay [2] was over 1 µM throughout.

As for `CCNC(=O)c1cc2c(-c3cc(S(C)(=O)=O)ccc3Oc3ccc(OCCOCCOCCOCCOCCNC(=O)CCNC(=O)c4nc(NC(=O)c5cc(NC(=O)CCNC(=O)c6nc(NC(=O)CCCNC(=O)c7cc(NC(=O)c8nc(NC(=O)CCNC(=O)c9cc(NC(=O)c%10nccn%10C)cn9C)cn8C)cn7C)cn6C)cn5C)cn4C)cc3F)cn(C)c(=O)c2[nH]1` [Compound A-55], in assay [1], the “GM 09197 E min 48 Hr C Allele (%)” value is reported as “A (A>90%)” and the IC50 was over 1 µM. In addition, in assay [2], the IC50 is over 1 µM and the “Gm09197 Emin 48 hr T Allele (%)” value is on record as “A (A>90%)”.

Take `CC(=O)N1c2ccc(-c3ccn(CCOCCOCCOCCOCCOCCOCCOCCOCCOCCOCCOCCOCCOCCOCCOCCNC(=O)CCNC(=O)c4nc(NC(=O)c5cc(NC(=O)CCNC(=O)c6nc(NC(=O)CCCNC(=O)c7cc(NC(=O)c8nc(NC(=O)CCNC(=O)c9cc(NC(=O)c%10nccn%10C)cn9C)cn8C)cn7C)cn6C)cn5C)cn4C)n3)cc2[C@H](Nc2ccc(C#N)cc2)C[C@@H]1C` [Compound A-56]: in assay [1], the “GM 09197 E min 48 Hr C Allele (%)” value is recorded as “C (C<80%)” and the IC50 was over 1 µM. In assay [2], the IC50 is 0.104 µM and the “Gm09197 Emin 48 hr T Allele (%)” value is “C (C<80%)”.
